Test results taken from US20240158446A1, “CYCLIC COMPOUND HAVING SELECTIVE INHIBITORY ACTION ON KRAS OVER HRAS AND NRAS” (CHUGAI SEIYAKU KABUSHIKI KAISHA, priority 2021, published 2024).

Columns and labels:
[1] = system: human lung cancer strain NCI-H441;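 also: cell proliferation inhibition after four days measured by CellTiter-Glo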
[2] = target: GDP-bound NRAS wild-type protein (Homo sapiens, UniProt P01111); assay: Binding to NRAS by surface plasmon resonance (SPR), Single Cycle Kinetics; conditions: SPR, GDP-bound NRAS wild-type protein vs GDP-bound KRAS wild-type protein
[3] = target: GDP-bound HRAS wild-type protein (Homo sapiens, UniProt P01112); assay: Binding to HRAS by surface plasmon resonance (SPR), Single Cycle Kinetics; conditions: SPR, GDP-bound HRAS wild-type protein vs GDP-bound KRAS wild-type protein
[4] = target: GDP-bound KRAS wild-type protein (Homo sapiens, UniProt P01116); assay: Binding to KRAS by surface plasmon resonance (SPR), Single Cycle Kinetics; conditions: SPR, Single Cycle Kinetics, GDP-bound KRAS wild-type protein; read-out: KRAS KD
Sequence of GDP-bound KRAS wild-type protein (P01116 whole entry): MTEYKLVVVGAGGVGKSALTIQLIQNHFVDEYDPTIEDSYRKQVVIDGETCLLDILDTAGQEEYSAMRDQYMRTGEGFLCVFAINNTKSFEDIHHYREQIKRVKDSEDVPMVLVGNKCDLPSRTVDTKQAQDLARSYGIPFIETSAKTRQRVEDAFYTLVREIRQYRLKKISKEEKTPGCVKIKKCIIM

Sequence of GDP-bound NRAS wild-type protein (P01111 whole entry): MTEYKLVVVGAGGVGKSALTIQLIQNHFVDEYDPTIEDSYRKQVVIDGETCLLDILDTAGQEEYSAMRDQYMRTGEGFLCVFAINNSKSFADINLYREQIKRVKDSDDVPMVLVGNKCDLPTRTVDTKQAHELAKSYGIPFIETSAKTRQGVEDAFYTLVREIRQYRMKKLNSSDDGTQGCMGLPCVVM
Sequence of GDP-bound HRAS wild-type protein (P01112 whole entry): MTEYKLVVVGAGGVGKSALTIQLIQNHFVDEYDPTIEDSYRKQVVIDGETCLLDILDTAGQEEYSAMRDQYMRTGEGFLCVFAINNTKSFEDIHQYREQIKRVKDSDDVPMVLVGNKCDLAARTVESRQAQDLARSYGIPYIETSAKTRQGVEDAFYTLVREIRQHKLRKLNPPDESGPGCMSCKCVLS

Compound | IC50 [1] | NRAS/KRAS (ratio of KD value for NRAS to KD value for KRAS) [2] | HRAS/KRAS (ratio of KD value for HRAS to KD value for KRAS) [3] | Kd [4]
CCO[C@@H]1C[C@H]2C(=O)NC3(CCC3)C(=O)N(C)[C@@H](C3CCCC3)C(=O)N(C)[C@H](C(=O)N(C)C)CC(=O)N(C)[C@@H](Cc3ccc(Cl)c(Cl)c3)C(=O)N[C@@H]([C@@H](C)CC)C(=O)N(C)CC(=O)N(C)[C@H]3CCCCCN(C3=O)[C@@H](Cc3ccc(F)cc3)C(=O)N(C)CC(=O)N[C@@H](CCc3cc(F)c(C(F)(F)F)c(F)c3)C(=O)N2C1 [PP1158] | 57.5 nM | B (a compound having 3 or more and less than 10 is denoted as B) | B (a compound having 3 or more and less than 10 is denoted as B) | 0.18 nM
CCCO[C@@H]1C[C@H]2C(=O)NC3(CCC3)C(=O)N(C)[C@@H](C3CCCC3)C(=O)N(C)[C@H](C(=O)N3CCOCC3)CC(=O)N(C)[C@@H](CC(C)C)C(=O)N[C@@H]([C@@H](C)CC)C(=O)N(C)CC(=O)N(C)[C@H]3CCCCN(C3=O)[C@@H](Cc3ccc(C(F)(F)F)cc3)C(=O)N(C)CC(=O)N[C@@H](CCc3cc(F)c(C(F)(F)F)c(F)c3)C(=O)N2C1 [PP1159] | 13 nM | C (A compound having a KD ratio of 0.1 or more and less than 3 is denoted as C) | B (a compound having 3 or more and less than 10 is denoted as B) | 0.036 nM
CC[C@H](C)[C@@H]1NC(=O)[C@H](CC(C)C)N(C)C(=O)C[C@@H](C(=O)N2CCOCC2)N(C)C(=O)[C@H](C2CCCC2)N(C)C(=O)C2(CCC2)NC(=O)[C@@H]2C[C@@H](OCC(C)C)CN2C(=O)[C@H](CCc2cc(F)c(C(F)(F)F)c(F)c2)NC(=O)CN(C)C(=O)[C@H](Cc2ccc(C(F)(F)F)cc2)N2CCCC[C@@H](C2=O)N(C)C(=O)CN(C)C1=O [PP1160] | 18.4 nM | B (a compound having 3 or more and less than 10 is denoted as B) | B (a compound having 3 or more and less than 10 is denoted as B) | 0.032 nM
CCO[C@@H]1C[C@H]2C(=O)NC3(CCC3)C(=O)N(C)[C@@H](C3CCCC3)C(=O)N(C)[C@H](C(=O)N3CCOCC3)CC(=O)N(C)[C@@H](Cc3cccs3)C(=O)N[C@@H]([C@@H](C)CC)C(=O)N(C)CC(=O)N(C)[C@H]3CCCCCN(C3=O)[C@@H](Cc3ccc(C(F)(F)F)cc3)C(=O)N(C)CC(=O)N[C@@H](CCc3cc(F)c(C(F)(F)F)c(F)c3)C(=O)N2C1 [PP1163] | 93.3 nM | B (a compound having 3 or more and less than 10 is denoted as B) | B (a compound having 3 or more and less than 10 is denoted as B) | 0.59 nM
CCO[C@@H]1C[C@H]2C(=O)NC3(CCC3)C(=O)N(C)[C@@H](C3CCCC3)C(=O)N(C)[C@H](C(=O)N3CCOCC3)CC(=O)N(C)[C@@H](Cc3ccsc3)C(=O)N[C@@H]([C@@H](C)CC)C(=O)N(C)CC(=O)N(C)[C@H]3CCCCCN(C3=O)[C@@H](Cc3ccc(C(F)(F)F)cc3)C(=O)N(C)CC(=O)N[C@@H](CCc3cc(F)c(C(F)(F)F)c(F)c3)C(=O)N2C1 [PP1164] | 95.9 nM | B (a compound having 3 or more and less than 10 is denoted as B) | B (a compound having 3 or more and less than 10 is denoted as B) | 0.52 nM
CCO[C@@H]1C[C@H]2C(=O)NC3(CCC3)C(=O)N(C)[C@@H](C3CCCC3)C(=O)N(C)[C@H](C(=O)N3CCOCC3)CC(=O)N(C)[C@@H](Cc3ccccc3C#N)C(=O)N[C@@H]([C@@H](C)CC)C(=O)N(C)CC(=O)N(C)[C@H]3CCCCCN(C3=O)[C@@H](Cc3ccc(C(F)(F)F)cc3)C(=O)N(C)CC(=O)N[C@@H](CCc3cc(F)c(C(F)(F)F)c(F)c3)C(=O)N2C1 [PP1165] | 295 nM | A (a compound having 10 or more and less than 20 is denoted as A) | B (a compound having 3 or more and less than 10 is denoted as B) | 1.5 nM
CCO[C@@H]1C[C@H]2C(=O)NC3(CCC3)C(=O)N(C)[C@@H](C3CCCC3)C(=O)N(C)[C@H](C(=O)N3CCOCC3)CC(=O)N(C)[C@@H](Cc3ccc(C#N)cc3)C(=O)N[C@@H]([C@@H](C)CC)C(=O)N(C)CC(=O)N(C)[C@H]3CCCCCN(C3=O)[C@@H](Cc3ccc(C(F)(F)F)cc3)C(=O)N(C)CC(=O)N[C@@H](CCc3cc(F)c(C(F)(F)F)c(F)c3)C(=O)N2C1 [PP1167] | 134 nM | B (a compound having 3 or more and less than 10 is denoted as B) | B (a compound having 3 or more and less than 10 is denoted as B) | 0.5 nM
CCO[C@@H]1C[C@H]2C(=O)NC3(CCC3)C(=O)N(C)[C@@H](C3CCCC3)C(=O)N(C)[C@H](C(=O)N3CCOCC3)CC(=O)N(C)[C@@H](Cc3ccc(Cl)c(Cl)c3)C(=O)N[C@@H]([C@@H](C)CC)C(=O)N(C)CC(=O)N(C)[C@H]3CCCCCN(C3=O)[C@@H](Cc3ccc(C(F)(F)F)cc3)C(=O)N(C)CC(=O)N[C@@H](CCc3cc(F)c(C(F)(F)F)c(F)c3)C(=O)N2C1 [PP1168] | 338 nM | A (a compound having 10 or more and less than 20 is denoted as A) | A (a compound having 10 or more and less than 20 is denoted as A) | 1.8 nM
CCO[C@@H]1C[C@H]2C(=O)NC3(CCC3)C(=O)N(C)[C@@H](C3CCCC3)C(=O)N(C)[C@H](C(=O)N(C)C)CC(=O)N(C)[C@@H](Cc3cccs3)C(=O)N[C@@H]([C@@H](C)CC)C(=O)N(C)CC(=O)N(C)[C@H]3CCCCCN(C3=O)[C@@H](Cc3ccc(C(F)(F)F)cc3)C(=O)N(C)CC(=O)N[C@@H](CCc3cc(F)c(C(F)(F)F)c(F)c3)C(=O)N2C1 [PP1169] | 74 nM | B (a compound having 3 or more and less than 10 is denoted as B) | B (a compound having 3 or more and less than 10 is denoted as B) | 0.32 nM
CCO[C@@H]1C[C@H]2C(=O)NC3(CCC3)C(=O)N(C)[C@@H](C3CCCC3)C(=O)N(C)[C@H](C(=O)N(C)C)CC(=O)N(C)[C@@H](Cc3ccccc3C#N)C(=O)N[C@@H]([C@@H](C)CC)C(=O)N(C)CC(=O)N(C)[C@H]3CCCCCN(C3=O)[C@@H](Cc3ccc(C(F)(F)F)cc3)C(=O)N(C)CC(=O)N[C@@H](CCc3cc(F)c(C(F)(F)F)c(F)c3)C(=O)N2C1 [PP1171] | 118 nM | B (a compound having 3 or more and less than 10 is denoted as B) | B (a compound having 3 or more and less than 10 is denoted as B) | 0.69 nM
CCO[C@@H]1C[C@H]2C(=O)NC3(CCC3)C(=O)N(C)[C@@H](C3CCCC3)C(=O)N(C)[C@H](C(=O)N(C)C)CC(=O)N(C)[C@@H](Cc3cccc(C#N)c3)C(=O)N[C@@H]([C@@H](C)CC)C(=O)N(C)CC(=O)N(C)[C@H]3CCCCCN(C3=O)[C@@H](Cc3ccc(C(F)(F)F)cc3)C(=O)N(C)CC(=O)N[C@@H](CCc3cc(F)c(C(F)(F)F)c(F)c3)C(=O)N2C1 [PP1172] | 48.3 nM | B (a compound having 3 or more and less than 10 is denoted as B) | B (a compound having 3 or more and less than 10 is denoted as B) | 0.17 nM
CCO[C@@H]1C[C@H]2C(=O)NC3(CCC3)C(=O)N(C)[C@@H](C3CCCC3)C(=O)N(C)[C@H](C(=O)N(C)C)CC(=O)N(C)[C@@H](Cc3ccc(C#N)cc3)C(=O)N[C@@H]([C@@H](C)CC)C(=O)N(C)CC(=O)N(C)[C@H]3CCCCCN(C3=O)[C@@H](Cc3ccc(C(F)(F)F)cc3)C(=O)N(C)CC(=O)N[C@@H](CCc3cc(F)c(C(F)(F)F)c(F)c3)C(=O)N2C1 [PP1173] | 70.8 nM | B (a compound having 3 or more and less than 10 is denoted as B) | B (a compound having 3 or more and less than 10 is denoted as B) | 0.18 nM
CCO[C@@H]1C[C@H]2C(=O)NC3(CCC3)C(=O)N(C)[C@@H](C3CCCC3)C(=O)N(C)[C@H](C(=O)N(C)C)CC(=O)N(C)[C@@H](Cc3ccc(Cl)c(Cl)c3)C(=O)N[C@@H]([C@@H](C)CC)C(=O)N(C)CC(=O)N(C)[C@H]3CCCCCN(C3=O)[C@@H](Cc3ccc(C(F)(F)F)cc3)C(=O)N(C)CC(=O)N[C@@H](CCc3cc(F)c(C(F)(F)F)c(F)c3)C(=O)N2C1 [PP1174] | 85.2 nM | B (a compound having 3 or more and less than 10 is denoted as B) | B (a compound having 3 or more and less than 10 is denoted as B) | 1 nM
CCO[C@@H]1C[C@H]2C(=O)NC3(CCC3)C(=O)N(C)[C@@H](C3CCCC3)C(=O)N(C)[C@H](C(=O)N3CCOCC3)CC(=O)N(C)[C@@H](C)C(=O)N[C@@H]([C@@H](C)CC)C(=O)N(C)CC(=O)N(C)[C@H]3CCCCCN(C3=O)[C@@H](Cc3ccc(F)cc3)C(=O)N(C)CC(=O)N[C@@H](CCc3cc(F)c(C(F)(F)F)c(F)c3)C(=O)N2C1 [PP1175] | 23.5 nM | B (a compound having 3 or more and less than 10 is denoted as B) | B (a compound having 3 or more and less than 10 is denoted as B) | 0.16 nM
CCO[C@@H]1C[C@H]2C(=O)NC3(CCC3)C(=O)N(C)[C@@H](C3CCCC3)C(=O)N(C)[C@H](C(=O)N3CCOCC3)CC(=O)N(C)[C@@H](CC)C(=O)N[C@@H]([C@@H](C)CC)C(=O)N(C)CC(=O)N(C)[C@H]3CCCCCN(C3=O)[C@@H](Cc3ccc(F)cc3)C(=O)N(C)CC(=O)N[C@@H](CCc3cc(F)c(C(F)(F)F)c(F)c3)C(=O)N2C1 [PP1176] | 50 nM | B (a compound having 3 or more and less than 10 is denoted as B) | B (a compound having 3 or more and less than 10 is denoted as B) | 0.13 nM
